Experimental data as given in patent US20060194969A1, “4-Substituted benzimidazoles and their uses as inhibitors of gastric secretion” (priority 2002, published 2006).

Key:
[1] = test system: pentagastrin-stimulated acid secretion of the perfused rat stomach; assay: Secretion-inhibiting action on the perfused rat stomach (pentagastrin-stimulated acid secretion, intraduodenal administration in vivo); conditions: dose 1 μmol/kg i.d., anesthetized female CD rat; for inhibition in vivo at 1 µmol/kg: intraduodenal
Text: Testing of the Secretion-Inhibiting Action on the Perfused Rat Stomach
In Table A which follows, the influence of the compounds according to the invention on the pentagastrin-stimulated acid secretion of the perfused rat stomach after intraduodenal administration in vivo is shown.
The abdomen of anesthetized rats (CD rat, female, 200-250 g; 1.5 g/kg i.m. urethane) was opened after tracheotomy by a median upper abdominal incision and a PVC catheter was fixed transorally in the esophagus and another via the pylorus such that the ends of the tubes just projected into the gastric lumen. The catheter leading form the pylorus led outward into the right abdominal wall through a side opening.
After thorough rinsing (about 50-100 ml), warm (37° C.) physiological NaCl solution was continuously passed through the stomach (0.5 ml/min, pH 6.8-6.9; Braun-Unita I). The pH (pH meter 632, glass electrode EA 147; φ=5 mm, Metrohm) and, by titration with a freshly prepared 0.01 N NaOH solution to pH 7 (Dosimat 665 Metrohm), the secreted HCl were determined in the effluent in each case collected at an interval of 15 minutes.
The gastric secretion was stimulated by continuous infusion of 1 μg/kg (=1.65 ml/h) of i.v. pentagastrin (left femoral vein) about 30 min after the end of the operation (i.e. after determination of 2 preliminary fractions). The substances to be tested were administered intraduodenally in a 2.5 ml/kg liquid volume 60 min after the start of the continuous pentagastrin infusion.
The body temperature of the animals was kept at a constant 37.8-38° C. by infrared irradiation and heat pads (automatic, stepless control by means of a rectal temperature sensor).

Compound	melting point [°C]	inhibition in vivo at 1 µmol/kg [1] [%]	Inhibition of acid secretion (%) [1] [%]
Cc1nc2c(O[C@@H]3c4ccccc4C[C@H]3O)cc(C(=O)N(C)C)cc2n1C.O=C(O)C(=O)O (relative stereo) [Example 10, 4-(trans-2,3-Dihydro-2-hydroxy-1-indenyloxy)-6-(N,N-dimethylaminocarbonyl)-1,2-dimethyl-1H-benzimidazole Oxalate]	144 to 145	> 50	–
CCc1cccc(C)c1CNc1cc(C(=O)N(C)C)cc2c1nc(C)n2C [Example 44]	–	–	>50
Cc1nc2c(O[C@@H]3c4ccc(Cl)cc4C[C@H]3O)cc(C(=O)N(C)C)cc2n1C.O=C(O)C(=O)O (relative stereo) [Example 19, 4-(trans-5-Chloro-2,3-dihydro-2-hydroxy-1-indenyloxy)-6-(N,N-dimethylaminocarbonyl)-1,2-dimethyl-1H-benzimidazole Oxalate]	158 to 159	> 50	–
Cc1cccc(C)c1CNc1cc(C(=O)O)cc2c1nc(C)n2C [Example 32, 4-(2,6-Dimethyl-benzylamino)-1,2-dimethyl-1H-benzimidazole-6-carboxylic Acid]	315 to 318	–	–
Cc1nc2c(O[C@H]3c4ccccc4C[C@@H]3O)cc(C(=O)N(C)C)cc2n1C.O=C(O)C(=O)O [Example 11, 4-[(1S,2S)-2,3-Dihydro-2-hydroxy-1-indenyloxy]-6-(N,N-dimethylaminocarbonyl)-1,2-dimethyl-1H-benzimidazole Oxalate]	126 to 127	> 50	–
CCOC(=O)c1cc(NCc2c(C)cccc2CC)c2nc(COC)n(C)c2c1 [Example 29, Ethyl 4-(2-ethyl-6-methyl-benzylamino)-2-methoxymethyl-1-methyl-1H-benzimidazole-6-carboxylate]	106 to 107	–	–
COCC(=O)O[C@@H]1Cc2ccccc2[C@H]1Oc1cc(C(=O)N(C)C)cc2c1nc(C)n2C (relative stereo) [Example 13]	–	–	>50
CCc1cccc(C)c1CNc1cc(C(=O)O)cc2c1nc(COC)n2C [Example 33, 4-(2-Ethyl-6-methyl-benzylamino)-2-methoxymethyl-1-methyl-1H-benzimidazole-6-carboxylic Acid]	275 to 278	–	–
CCc1cccc(C)c1CNc1cc(C(=O)NCCO)cc2c1nc(C)n2C [Example 35, 4-(2-Ethyl-6-methyl-benzylamino)-6-(2-hydroxyethyl-aminocarbonyl)-1,2-dimethyl-1H-benzimidazole]	200 to 201	> 50	–
COCc1cc(OCc2ccccc2)c2nc(C)n(C)c2c1 [Example 6, 4-Benzyloxy-6-methoxymethyl-1,2-dimethyl-1H-benzimidazole]	113	–	–
CCc1cccc(C)c1COc1cc(C(=O)N(C)C)cc2c1nc(C)n2C [Example 8, 6-(N,N-Dimethylaminocarbonyl)-4-(2-ethyl-6-methyl-benzyloxy)-1,2-dimethyl-1H-benzimidazole]	161 to 162	> 50	–
CCOC(=O)c1cc(NCc2c(C)cccc2C)c2nc(C)n(C)c2c1 [Example 28, Ethyl 4-(2,6-dimethyl-benzylamino)-1,2-dimethyl-1H-benzimidazole-6-carboxylate]	190	–	–
CCN(CCOC)C(=O)c1cc(O[C@@H]2c3ccccc3C[C@H]2O)c2nc(C)n(C)c2c1.O=C(O)C(=O)O (relative stereo) [Example 24, 4-(trans-2,3-Dihydro-2-hydroxy-1-indenyloxy)-6-[N-(2-methoxyethyl)-N-ethyl-amino-carbonyl]-1,2-dimethyl-1H-benzimidazole Oxalate]	141	–	–
Cc1ccc(C)c2c1C[C@@H](O)[C@@H]2Oc1cc(C(=O)N(C)C)cc2c1nc(C)n2C (relative stereo) [Example 22, 4-(trans-2,3-Dihydro-2-hydroxy-4,7-dimethyl-1-indenyloxy)-6-(N,N-dimethylaminocarbonyl)-1,2-dimethyl-1H-benzimidazole]	134	–	–

Continued, in another order:

melting point [°C]	Compound	inhibition in vivo at 1 µmol/kg [1] [%]	Inhibition of acid secretion (%) [1] [%]
183 to 184	CCc1cccc(C)c1CNc1cc(C(=O)N(C)C)cc2c1ncn2C.Cl [Example 45, 6-(N,N-Dimethylaminocarbonyl)-4-(2-ethyl-6-methyl-benzylamino)-1-methyl-1H-benzimidazole Hydrochloride]	> 50	–
240 to 241	CCc1cccc(C)c1CNc1cc(C(N)=O)cc2c1nc(C)n2C [Example 38, 4-(2-Ethyl-6-methyl-benzylamino)-1,2-dimethyl-1H-benzimidazole-6-carboxamide]	> 50	–
229 to 231	CCc1cccc(C)c1CNc1cc(C(=O)N2CCOCC2)cc2c1nc(C)n2C [Example 41, 4-(2-Ethyl-6-methyl-benzylamino)-1,2-dimethyl-6-(morpholinocarbonyl)-1H-benzimidazole]	> 50	–
252 to 253	CNC(=O)c1cc(NCc2c(C)cccc2C)c2nc(C)n(C)c2c1 [Example 55, 4-(2,6-Dimethyl-benzylamino)-1,2-dimethyl-6-(N-methylaminocarbonyl)-1H-benzimidazole]	> 50	–
228 to 230	CCc1cccc(C)c1CNc1cc(C(=O)N(C)C)cc2[nH]c(C)nc12 [Example 49, 6-(N,N-Dimethylaminocarbonyl)-4-(2-ethyl-6-methyl-benzylamino)-2-methyl-1H-benzimidazole]	> 50	–
156 to 157	COCc1nc2c(NCc3c(C)cccc3C)cc(C(=O)N(C)C)cc2n1C [Example 43, 6-(N,N-Dimethylaminocarbonyl)-4-(2,6-dimethyl-benzylamino)-2-methoxymethyl-1-methyl-1H-benzimidazole]	> 50	–
152	CCOC(=O)c1cc(OCc2ccccc2)c2nc(C)n(C)c2c1 [Example 52, Ethyl 4-benzyloxy-1,2-dimethyl-1H-benzimidazole-6-carboxylate]	–	–
55 to 56	Cc1cccc(C)c1CNc1cc(C(=O)N(C)C)cc2c1nc(C)n2COCc1ccccc1 [Example 66, 1-Benzyloxymethyl-6-(N,N-dimethylaminocarbonyl)-4-(2,6-dimethyl-benzylamino)-2-methyl-1H-benzimidazole]	–	–
155 to 156	CCOC(=O)c1cc(NCc2c(C)cccc2C)c2nc(C)n(COCc3ccccc3)c2c1 [Example 64, Ethyl1-benzyloxymethyl-4-(2,6-dimethyl-benzylamino)-2-methyl-1H-benzimidazole-6-carboxylate]	–	–
154	CCc1cccc(C)c1CNc1cc(C(=O)N(C)C)cc2c1nc(COC)n2C [Example 42, 6-(N,N-Dimethylaminocarbonyl)-4-(2-ethyl-6-methyl-benzylamino)-2-methoxymethyl-1-methyl-1H-benzimidazole]	> 50	–
126	CCc1cccc(C)c1CNc1cc(C(=O)N2CCCC2)cc2c1nc(C)n2C [Example 40, 4-(2-Ethyl-6-methyl-benzylamino)-1,2-dimethyl-6-(pyrrolidinocarbonyl)-1H-benzimidazole]	> 50	–
142 to 143	Cc1cccc(C)c1CNc1cc(C(=O)N(C)C)cc2c1nc(C)n2C [Example 46, 6-(N,N-Dimethylaminocarbonyl)-4-(2,6-dimethyl-benzylamino)-1,2-dimethyl-1H-benzimidazole]	> 50	–
171 to 172	Cc1cccc(C)c1CNc1cc(C(=O)N(C)C)cc2c1nc(CO)n2C [Example 82, 6-(N,N-Dimethylaminocarbonyl)-4-(2,6-dimethyl-benzylamino)-2-hydroxymethyl-1-methyl-1H-benzimidazole]	–	–
248 to 249	COn1c(C)nc2c(NCc3c(C)cccc3C)cc(C(=O)O)cc21 [Example 79, 4-(2,6-Dimethyl-benzylamino)-1-methoxy-2-methyl-1H-benzimidazole-6-carboxylic acid]	–	–
197 to 198	Cc1cccc(CO)c1CNc1cc(C(=O)N(C)C)cc2c1nc(C)n2C [Example 70, 6-(N,N-Dimethylaminocarbonyl)-4-(2-hydroxymethyl-6-methyl-benzylamino)-1,2-dimethyl-1H-benzimidazole]	–	–
245 to 246	Cc1cccc(C)c1CNc1cc(CO)cc2c1nc(C)n2C [Example 58, 4-(2,6-Dimethyl-benzylamino)-6-hydroxymethyl-1,2-dimethyl-1H-benzimidazole]	–	–
171 to 172	COn1c(C)nc2c(NCc3c(C)cccc3C)cc(Br)cc21 [Example 77, 6-Bromo-4-(2,6-dimethyl-benzylamino)-1-methoxy-2-methyl-1H-benzimidazole]	–	–
256 to 257	Cc1nnc(-c2cc(NCc3c(C)cccc3C)c3nc(C)n(C)c3c2)o1 [Example 85, 4-(2,6-Dimethyl-benzylamino)-6-(5-methyl-[1,3,4]oxadiazol-2yl)-1,2-dimethyl-1H-benzimidazole]	–	–
